Source: patent US20250269043A1, “TARGETED BIFUNCTIONAL DEGRADERS” (YALE UNIVERSITY, priority 2019, published 2025)

What was measured:
[1] = biological target: T1, human MIF (Homo sapiens, UniProt P14174); assay: Depletion of injected recombinant human MIF from serum in mice; assay type: in vivo; design: injected into mice; conditions: for depletion of human MIF protein from serum: 30 minutes, FIG. 135
T1 sequence (P14174 2-115 limits assumed): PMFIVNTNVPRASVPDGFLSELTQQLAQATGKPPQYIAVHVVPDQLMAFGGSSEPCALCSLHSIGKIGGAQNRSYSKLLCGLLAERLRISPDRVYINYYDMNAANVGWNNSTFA
Description: In vivo human MIF depletion experiments were undertaken to determine whether MIF-GN3 can mediate the depletion of injected recombinant human MIF from serum in mice. Mice were injected with five μg of the human MIF protein. In this experiment, one group of mice was also injected with a single 10 mpk dose of MLF-GN3 along with human MIF protein. It was observed that after four hours, the average level of human MIF in serum in the PBS-treated mice was 1.76 ng/mL (FIG. 134). In mice treated with 10 mpk MIF-GN3, however, the concentration of human MIF in serum was 0.68 ng/mL. One day after the initial injection, human MIF levels had reached background levels for both conditions. […] It was hypothesized that, due to the short half-life of human MIF in serum, investigating human MIF levels at earlier time points may be more informative.
Next, an experiment was performed to determine whether MIF-GN3 could enhance MIF clearance at time points earlier than four hours. Mice were coinjected with recombinant human MIF and 10 mpk MIF-GN3 via either i.p. or i.v. routes. For the PBS control arms, human MIF was injected with PBS. It was observed that in the absence of MIF-GN3, there was a spike in huMIF levels in circulation after 30 minutes (FIG. 135). In the presence of MIF-GN3, however, levels of MIF protein remained low at 30 minutes and no spike in its concentration was observed. By two hours, the levels of human MIF in circulation decreased to background levels.
In a further experiment, whether an inhibitor of the MIF protein (3w) is able to mediate the protein's depletion from serum was determined. A bifunctional molecule that mediates the depletion of α-DNP antibody from serum was also assayed as a negative control. Neither of these molecules was expected to mediate the formation of a ternary complex between human MIF protein and ASGPR.

[2] = system: PC3 cells; assay: PC3 human prostate cancer cell tumor model in mice; assay type: in vivo; conditions: for tumor growth: FIG. 138
Description: The ability of MIF-GN3 to mediate the depletion of MIF in a therapeutically relevant disease model was investigated. […] An experiment was conducted to determine whether the bifunctional molecule MIF-GN3 can deplete sufficient human MIF from serum to slow PC3 tumor growth. Mice were injected with an aliquot of PC3 cells, and the size of the resultant tumors as well as the levels of human MIF in serum were monitored over five weeks. […] Five weeks after the initial PC3 cell injection, the first of the mice reached maximal tumor size ([…]) and was sacrificed (FIG. 138). […] The decrease in human MIF levels mediated by MIF-GN3 is consistent with a mechanism of action in which MIF-GN3 mediates the depletion and degradation of circulating MIF protein. While the α-MIF antibody would not necessarily be expected to decrease the levels of human MIF, it is possible that the antibody mediates MIF neutralization in a manner which masks its signal as determined by ELISA. Alternatively, the α-MIF antibody may mediate depletion or degradation of huMIF by some endocytic mechanism. Another possible explanation is that the α-MIF antibody decrease serum levels of active human MIF to such an extent at early time points that PC3 cells proliferate much more slowly, and therefore fewer cells are actively secreting human MIF.
Mice were sacrificed when their tumor volumes reached 1000 mm^3. […] At this same time point, less than 25% of the mice in any other arm had survived.

[3] = biological target: T2, mouse MIF (Mus musculus, UniProt P34884); assay: Depletion of endogenous mouse MIF in vivo; design: species or system mice; conditions: single dose of 10 mpk; FIG. 137
T2 construct: mediate the depletion of endogenous mouse MIF in vivo; from tissue; host or cells: mouse serum, in vivo
Description: In order to confirm that mice injected with one or ten mpk MIF-GN3 had received the injection, and that the observed stability of MIF concentrations in MIF-GN3 treated mice was not the result of injection error, 200 μg of α-DNP antibody was coinjected with the MIF protein in this experiment. […] An investigation of the ability of MIF-GN3 to mediate the depletion of endogenous mouse MIF in vivo was next undertaken. Mice were treated with either PBS or 10 mpk of MIF-GN3. […] One possible explanation for this finding is that MIF protein may be synthesized rapidly, and any increase in degradation mediated by MIF-GN3 may not be of a large enough magnitude to impact the protein's level in serum.

[4] = biological target: T1, human MIF; assay: Depletion of human MIF from cell culture supernatant (sandwich ELISA); assay type: cell-based; conditions: for removal of MIF from supernatant: after 48 hours, FIG. 129
Description: The ability of bifunctional MIF-binding molecules to mediate the depletion of human MIF from cell culture was investigated. In these assays, human MIF was present at a concentration of 100 nM, and a sandwich ELISA assay was utilized to measure the concentration of human MIF remaining in the cell culture supernatant. The closely related bifunctional molecules MIF-GN3, MIF-PEG2-GN3, and MIF-PEG4-GN3 were used, as well as the structurally dissimilar molecule MIF-NVS-PEG3-GN3. […] Based on the ease of its synthesis and its efficacy in this experiment, MIF-GN3 was utilized for further studies. It was next investigated whether the MIF inhibitor 3w mediates MIF depletion from cell culture supernatant. […] When cells were treated with 3w, no depletion of exogenous MIF protein was observed after 24 hours (FIG. 128B).
Bifunctional molecules containing optimized ASGPR-binding motifs are also capable of mediating MIF depletion from cell culture supernatant (FIG. 129). The MIF-binding molecule MIF-AF1, which contains only a single ASGPR-binding sugar, was not effective at mediating depletion of MIF from supernatant at any concentration tested. It is hypothesized that this is due to the compound's low predicted affinity for ASGPR (μM range). […] At a concentration of either 200 nM or 1 μM, MIF-AF2 mediated nearly 100%/o depletion of MLF from the cell culture supernatant after 48 hours. […] In contrast to these molecules, which utilize optimized synthetic ASGPR ligands, the GalNAc-based molecule MIF-GN3 mediated only 67.0% and 56.0% removal of MIF from supernatant after 48 hours at concentrations of 1 μM and 200 nM, respectively. […] At a concentration of 40 nM (4.0 pmol of molecule), MIF-AF3 mediates the removal of 83.2% of MIF present in the cell culture supernatant, or 8.32 pmol of human MIF protein. Therefore, it was concluded that under the conditions of this experiment, MIF-AF3 mediates the depletion of 2.08 molar equivalents of MIF protein.

[5] = MIF-GN3 at 10 mpk, control arms DNP-GN3 and 3w

Row | Compound | human MIF concentration in serum compared to the PBS control ([1]; control molecules injected along with human MIF, FIG. 136) | tumor growth [2, 5] | mouse MIF concentrations in serum [3] | removal of MIF from supernatant ([4]; 200 nM) [%] | removal of MIF from supernatant ([4]; 1 μM) [%] | depletion of human MIF from cell culture supernatant ([4]; human MIF 100 nM, 24 hours, FIG. 128A) | depletion of human MIF protein from serum ([1]; 10 mpk coinjected i.p.) | depletion of human MIF protein from serum ([1]; 10 mpk coinjected i.v.) | human MIF levels in serum compared to the PBS control ([1]; one mpk, 40 and 60 minute time points, FIG. 136) | concentration of human MIF in serum ([1]; single 10 mpk dose with five μg human MIF, after four hours, PBS-treated 1.76 ng/mL, difference not significant, FIG. 134) [ng/mL] | human MIF levels in serum compared to the PBS control ([1]; ten mpk, 40 and 60 minutes, FIG. 136) | levels of human MIF protein in the serum ([2]; MIF-GN3 1 mpk, α-MIF antibody arm, FIG. 139) | tumor growth ([2]; MIF-GN3 at a dose of 1 mpk, α-MIF antibody arm) | survival ([2]; eight weeks after the initial PC3 cell injection, MIF-GN3 1 mpk, FIG. 140) [%]
1 | CC(=O)NC1C(OCCOCCOCCNC(=O)CCOCC(COCCC(=O)NCCOCCOCCOC2OC(CO)C(O)C(O)C2NC(C)=O)(COCCC(=O)NCCOCCOCCOC2OC(CO)C(O)C(O)C2NC(C)=O)NC(=O)CNC(=O)COCCOCCOCCNc2ccc([N+](=O)[O-])cc2[N+](=O)[O-])OC(CO)C(O)C1O (stereo not drawn) [DNP-GN3] | no significant decreases | not found to decrease tumor growth | – | – | – | – | – | – | – | – | – | – | – | –
2 | CC(=O)N[C@H]1[C@H](OCCOCCOCCNC(=O)CCOCC(COCCC(=O)NCCOCCOCCO[C@@H]2O[C@H](CO)[C@H](O)[C@H](O)[C@H]2NC(C)=O)(COCCC(=O)NCCOCCOCCO[C@@H]2O[C@H](CO)[C@H](O)[C@H](O)[C@H]2NC(C)=O)NC(=O)CNC(=O)CCCOc2ccc3nc(-c4cn(-c5ccc(O)c(F)c5)nn4)ccc3c2)O[C@H](CO)[C@H](O)[C@@H]1O [MIF-GN3] | – | not found to decrease tumor growth | No significant decrease | 56.0 | 67.0 | effective | significant depletion | significant depletion | significant decrease | 0.68 | significant decreases | decreased levels | delay in tumor growth | 80
